# Reference: ChEMBL document CHEMBL3885861, “Open TG-GATES”
# Species on record: Rattus norvegicus
# Experiment: Open TG-GATES - Regimen: Daily Repeat
# Format: toxicity, organism-based, Sprague-Dawley
# Parameters: regimen Daily Repeat, gender Male, age 6 weeks
# Settings: in vivo, po, route gavage; for TP / gamma-GTP / A/G / ALP / ALT / AST / BUN / CRE / Ca / Cl / GLC / IP / K / LDH / Na / PL / RALB / TC / TG: tissue Plasma; for APTT / Bas / Eos / Fbg / Hb / Ht / Lym / MCH / MCHC / MCV / Mono / Neu / PT / Plat / RBC / Ret / WBC: tissue Blood; for KIDNEY_L / KIDNEY_R / KIDNEY_TOTAL: tissue Kidney; for LIVER: tissue Liver
# [1] = 300 mg/kg, […], dose level Middle, time 28 day
# [2] = 1000 mg/kg, 72 h, dose level High, time 3 day
# [3] = 1000 mg/kg, […], dose level High, time 7 day
# [4] = 1000 mg/kg, […], dose level High, time 14 day
# [5] = 1000 mg/kg, […], dose level High, time 28 day
smiles,measurement,setting,value
O=C(O)c1ccccc1Nc1ccccc1 [FENAMIC ACID],TP,[1],6.4 g/dL
same,gamma-GTP,[1],1 IU/L
same,TERMINAL_BW,[2],219.3 g
same,APTT,[2],17 s
same,Bas,[2],0.3%
same,Eos,[2],0.7%
same,Fbg,[2],440 mg/dL
same,Hb,[2],13.3 g/dL
same,Ht,[2],39.3%
same,Lym,[2],50.3%
same,MCH,[2],20.5 pg
same,MCHC,[2],33.8%
same,MCV,[2],60.5 fL
same,Mono,[2],3.3%
same,Neu,[2],44.3%
same,PT,[2],14 s
same,Plat,[2],127 x10_4/uL
same,RBC,[2],650 x10_4/ul
same,Ret,[2],5.7%
same,WBC,[2],132.2 x10_2/uL
same,KIDNEY_L,[2],1.1 g
same,KIDNEY_R,[2],1.1 g
same,KIDNEY_TOTAL,[2],2.1 g
same,LIVER,[2],10.8 g
same,A/G,[2],0.9
same,ALP,[2],1423.7 IU/L
same,ALT,[2],37.7 IU/L
same,AST,[2],58.3 IU/L
same,BUN,[2],17 mg/dL
same,CRE,[2],0.2 mg/dL
same,Ca,[2],11.4 mg/dL
same,Cl,[2],109 meq/L
same,GLC,[2],165.7 mg/dL
same,IP,[2],6.6 mg/dL
same,K,[2],4.4 meq/L
same,LDH,[2],100.3 IU/L
same,Na,[2],143.3 meq/L
same,PL,[2],148.7 mg/dL
same,RALB,[2],2.5 g/dL
same,TC,[2],67 mg/dL
same,TG,[2],89.3 mg/dL
same,TP,[2],5.3 g/dL
same,gamma-GTP,[2],1.3 IU/L
same,TERMINAL_BW,[3],253.6 g
same,TERMINAL_BW,[4],281.5 g
same,TERMINAL_BW,[5],383.3 g
same,APTT,[3],16.6 s
same,Bas,[3],1%
same,Eos,[3],0.7%
same,Fbg,[3],290.7 mg/dL
same,Hb,[3],12.6 g/dL
same,Ht,[3],37%
same,Lym,[3],72.3%
same,MCH,[3],20.5 pg
same,MCHC,[3],34%
same,MCV,[3],60.2 fL
same,Mono,[3],3%
same,Neu,[3],23.3%
same,PT,[3],14.1 s
same,Plat,[3],156 x10_4/uL
same,RBC,[3],616 x10_4/ul
same,Ret,[3],7.7%
same,WBC,[3],161.4 x10_2/uL
same,APTT,[4],32.8 s
same,Bas,[4],0.7%
same,Eos,[4],0.3%
same,Fbg,[4],473.3 mg/dL
same,Hb,[4],14 g/dL
same,Ht,[4],41.7%
same,Lym,[4],53.3%
same,MCH,[4],21.1 pg
same,MCHC,[4],33.5%
same,MCV,[4],63.2 fL
same,Mono,[4],3.7%
same,Neu,[4],41.7%
same,PT,[4],13.2 s
same,Plat,[4],171.8 x10_4/uL
same,RBC,[4],674 x10_4/ul
same,Ret,[4],13.6%
same,WBC,[4],149.3 x10_2/uL
same,APTT,[5],17.1 s
same,Bas,[5],0%
same,Eos,[5],0.5%
same,Fbg,[5],334.5 mg/dL
same,Hb,[5],12.2 g/dL
same,Ht,[5],36%
same,Lym,[5],69%
same,MCH,[5],19.6 pg
same,MCHC,[5],34%
same,MCV,[5],57.6 fL
same,Mono,[5],2.5%
same,Neu,[5],27.5%
same,PT,[5],13.9 s
same,Plat,[5],139.6 x10_4/uL
same,RBC,[5],626 x10_4/ul
same,Ret,[5],7.5%
same,WBC,[5],154.4 x10_2/uL
same,KIDNEY_L,[3],1.1 g
same,KIDNEY_R,[3],1.1 g
same,KIDNEY_TOTAL,[3],2.3 g
same,KIDNEY_L,[4],2.1 g
same,KIDNEY_R,[4],1.8 g
same,KIDNEY_TOTAL,[4],4 g
same,KIDNEY_L,[5],1.7 g
same,KIDNEY_R,[5],1.6 g
same,KIDNEY_TOTAL,[5],3.3 g
same,LIVER,[3],12.5 g
same,LIVER,[4],13.5 g
same,LIVER,[5],18.7 g
same,A/G,[3],0.9
same,ALP,[3],1573.3 IU/L
same,ALT,[3],38 IU/L
same,AST,[3],62.7 IU/L
same,BUN,[3],20 mg/dL
same,CRE,[3],0.3 mg/dL
same,Ca,[3],11.5 mg/dL
same,Cl,[3],107 meq/L
same,GLC,[3],177.3 mg/dL
same,IP,[3],6.3 mg/dL
same,K,[3],4.3 meq/L
same,LDH,[3],117 IU/L
same,Na,[3],144 meq/L
same,PL,[3],155.7 mg/dL
same,RALB,[3],2.6 g/dL
same,TC,[3],87.7 mg/dL
same,TG,[3],75.3 mg/dL
same,TP,[3],5.6 g/dL
same,gamma-GTP,[3],1 IU/L
same,A/G,[4],0.9
same,ALP,[4],1270.3 IU/L
same,ALT,[4],38.3 IU/L
same,AST,[4],57.3 IU/L
same,BUN,[4],118.3 mg/dL
same,CRE,[4],0.5 mg/dL
same,Ca,[4],11.8 mg/dL
same,Cl,[4],105.7 meq/L
same,GLC,[4],156.7 mg/dL
same,IP,[4],11 mg/dL
same,K,[4],5.2 meq/L
same,LDH,[4],210 IU/L
same,Na,[4],145.3 meq/L
same,PL,[4],140.7 mg/dL
same,RALB,[4],2.9 g/dL
same,TC,[4],65 mg/dL
same,TG,[4],94.7 mg/dL
same,TP,[4],6.3 g/dL
same,gamma-GTP,[4],2 IU/L
same,A/G,[5],0.9
same,ALP,[5],1013.5 IU/L
same,ALT,[5],36.5 IU/L
same,AST,[5],61.5 IU/L
same,BUN,[5],20 mg/dL
same,CRE,[5],0.3 mg/dL
same,Ca,[5],10.8 mg/dL
same,Cl,[5],105 meq/L
same,GLC,[5],182.5 mg/dL
same,IP,[5],5.5 mg/dL
same,K,[5],4.2 meq/L
same,LDH,[5],155.5 IU/L
same,Na,[5],144.5 meq/L
same,PL,[5],166 mg/dL
same,RALB,[5],2.5 g/dL
same,TC,[5],80 mg/dL
same,TG,[5],92 mg/dL
same,TP,[5],5.5 g/dL
same,gamma-GTP,[5],1 IU/L
